Test results as given in the NIST ThermoML archive (doi:10.1021/je034278t).
Numbers after ± are expanded uncertainties.

Conditions: Liquid

Compound: CC[S+]([O-])CC [diethyl sulfoxide]
- vapor or sublimation pressure (298.15 K): 0.0202 ± 0.0046 kPa
- vapor or sublimation pressure (303.15 K): 0.0339 ± 0.005 kPa
- vapor or sublimation pressure (308.15 K): 0.0438 ± 0.0054 kPa
- vapor or sublimation pressure (313.15 K): 0.0681 ± 0.0064 kPa
- vapor or sublimation pressure (318.15 K): 0.0924 ± 0.0075 kPa
